Toxic doses and inconclusive results are not listed. Cut-off read from the data, not from the text of the source: active = T/C of 150% or more; inactive = T/C below 125%.
System: L1210 leukemia ip in BDF1 mice, survival T/C
Assay: NCI In Vivo Anticancer Drug Screen. Data for tumor model L1210 Leukemia (intraperitoneal) in B6D2F1 (BDF1) mice
Conditions: endpoint: mean survival time, higher = longer survival
Procedure, shortened: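 Read-out is survival time, reported as the treated-group measurement over the vehicle-control measurement.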

[1] = dose: 100.0 mg/kg/injection, schedule: Q01DX001 (ip), vehicle: Klucel (hydroxypropylcellulose) (HPC)
[2] = dose: 100.0 mg/kg/injection, schedule: Q04DX003 (ip), vehicle: saline with Tween-80
[3] = dose: 200.0 mg/kg/injection, schedule: Q04DX003 (ip), vehicle: saline with Tween-80
[4] = dose: 400.0 mg/kg/injection, schedule: Q04DX003 (ip), vehicle: saline with Tween-80
[5] = dose: 100.0 mg/kg/injection, schedule: Q01DX001 (ip), vehicle: saline
[6] = dose: 200.0 mg/kg/injection, schedule: Q01DX001 (ip), vehicle: saline
[7] = dose: 400.0 mg/kg/injection, schedule: Q01DX001 (ip), vehicle: saline
[8] = dose: 50.0 mg/kg/injection, schedule: Q01DX009 (ip), vehicle: Klucel (hydroxypropylcellulose) (HPC)
[9] = dose: 100.0 mg/kg/injection, schedule: Q01DX009 (ip), vehicle: Klucel (hydroxypropylcellulose) (HPC)
[10] = dose: 200.0 mg/kg/injection, schedule: Q01DX009 (ip), vehicle: Klucel (hydroxypropylcellulose) (HPC)
[11] = dose: 100.0 mg/kg/injection, schedule: Q04DX003 (ip), vehicle: Klucel (hydroxypropylcellulose) (HPC)
[12] = dose: 200.0 mg/kg/injection, schedule: Q01DX001 (ip), vehicle: Klucel (hydroxypropylcellulose) (HPC)
[13] = dose: 200.0 mg/kg/injection, schedule: Q04DX003 (ip), vehicle: Klucel (hydroxypropylcellulose) (HPC)
[14] = dose: 400.0 mg/kg/injection, schedule: Q04DX003 (ip), vehicle: Klucel (hydroxypropylcellulose) (HPC)

Measured: T/C

N=C(N)c1ccc(OCCCCOc2ccc(NC(=O)Nc3cccc(S(=O)(=O)F)c3)cc2)cc1
inactive: dose: 25.0 mg/kg/injection, schedule: Q01DX001 (ip), vehicle: Klucel (hydroxypropylcellulose) (HPC) 97 % of control | dose: 50.0 mg/kg/injection, schedule: Q01DX001 (ip), vehicle: Klucel (hydroxypropylcellulose) (HPC) 95 % of control | [1] 89 % of control

Sc1ccccc1
inactive: [2] 92 % of control | [3] 99 % of control | [4] 94 % of control

C#CCONC(=O)c1ccc(OC)cc1
inactive: dose: 25.0 mg/kg/injection, schedule: Q01DX009 (ip), vehicle: carboxymethylcellulose (CMC) 98 % of control | dose: 50.0 mg/kg/injection, schedule: Q01DX009 (ip), vehicle: carboxymethylcellulose (CMC) 98 % of control | dose: 100.0 mg/kg/injection, schedule: Q01DX009 (ip), vehicle: carboxymethylcellulose (CMC) 96 % of control

Cc1cccc(N=Cc2ccccc2O)c1
inactive: dose: 50.0 mg/kg/injection, schedule: Q01DX009 (ip), vehicle: saline with Tween-80 99 % of control | dose: 100.0 mg/kg/injection, schedule: Q01DX001 (ip), vehicle: carboxymethylcellulose (CMC) 95 % of control | dose: 100.0 mg/kg/injection, schedule: Q01DX009 (ip), vehicle: saline with Tween-80 97 % of control | dose: 200.0 mg/kg/injection, schedule: Q01DX001 (ip), vehicle: carboxymethylcellulose (CMC) 97 % of control | dose: 200.0 mg/kg/injection, schedule: Q01DX009 (ip), vehicle: saline with Tween-80 95 % of control | dose: 400.0 mg/kg/injection, schedule: Q01DX001 (ip), vehicle: carboxymethylcellulose (CMC) 103 % of control

Cc1ccc(S(C)=O)cc1 (configuration not stated)
inactive: [5] 102 % of control | [6] 95 % of control | [7] 95 % of control

CC1(c2ccc(Cl)cc2)NC(=O)NC1=O (configuration not stated)
inactive: [8] 97 % of control | [9] 101 % of control | [10] 94 % of control

CCCCN(CCCC)C(=S)S[As](SC(=S)N(CCCC)CCCC)SC(=S)N(CCCC)CCCC
inactive: [9] 97 % of control | [10] 90 % of control | dose: 400.0 mg/kg/injection, schedule: Q01DX009 (ip), vehicle: Klucel (hydroxypropylcellulose) (HPC) 97 % of control

O=C(COc1ccccc1)Oc1c(Cl)c(Cl)c(Cl)c(Cl)c1Cl
inactive: [1] 96 % of control | [11] 103 % of control | [12] 92 % of control | [13] 103 % of control | dose: 400.0 mg/kg/injection, schedule: Q01DX001 (ip), vehicle: Klucel (hydroxypropylcellulose) (HPC) 98 % of control | [14] 95 % of control

O=C(O)c1cccc(CCc2ccccc2)c1
inactive: [1] 102 % of control | [12] 100 % of control

C/C=C/C(O)(C(=O)OCC)C(C)C (configuration not stated)
inactive: [5] 111 % of control | [6] 96 % of control | [7] 100 % of control

NC(=O)CCP(=O)(CCC(N)=O)CCC(N)=O
inactive: dose: 50.0 mg/kg/injection, schedule: Q01DX009 (ip), vehicle: saline 94 % of control | dose: 50.0 mg/kg/injection, schedule: Q04DX003 (ip), vehicle: saline 101 % of control | dose: 100.0 mg/kg/injection, schedule: Q01DX009 (ip), vehicle: saline 94 % of control | dose: 100.0 mg/kg/injection, schedule: Q04DX003 (ip), vehicle: saline 103 % of control | dose: 200.0 mg/kg/injection, schedule: Q01DX009 (ip), vehicle: saline 90 % of control | dose: 200.0 mg/kg/injection, schedule: Q04DX003 (ip), vehicle: saline 95 % of control | dose: 400.0 mg/kg/injection, schedule: Q04DX003 (ip), vehicle: saline 98 % of control

C/C=C/Sc1ccccc1
inactive: dose: 75.0 mg/kg/injection, schedule: Q01DX001 (ip), vehicle: carboxymethylcellulose (CMC) 95 % of control | dose: 150.0 mg/kg/injection, schedule: Q01DX001 (ip), vehicle: carboxymethylcellulose (CMC) 101 % of control | dose: 300.0 mg/kg/injection, schedule: Q01DX001 (ip), vehicle: carboxymethylcellulose (CMC) 98 % of control

CC(C)C(=O)Nc1ccc(S(=O)(=O)Cl)cc1
inactive: [2] 95 % of control | [3] 90 % of control | [4] 86 % of control

CCCCCCCCCC(=O)OCC(COC(=O)CCCCCCCCC)OC(=O)CCCCCCCCC
inactive: dose: 100.0 mg/kg/injection, schedule: Q01DX009 (sc), vehicle: olive oil, sesame oil, peanut oil 103 % of control | dose: 100.0 mg/kg/injection, schedule: Q04DX003 (sc), vehicle: olive oil, sesame oil, peanut oil 101 % of control | dose: 200.0 mg/kg/injection, schedule: Q01DX009 (sc), vehicle: olive oil, sesame oil, peanut oil 101 % of control | dose: 200.0 mg/kg/injection, schedule: Q04DX003 (sc), vehicle: olive oil, sesame oil, peanut oil 97 % of control | dose: 400.0 mg/kg/injection, schedule: Q01DX009 (sc), vehicle: olive oil, sesame oil, peanut oil 104 % of control | dose: 400.0 mg/kg/injection, schedule: Q04DX003 (sc), vehicle: olive oil, sesame oil, peanut oil 104 % of control

CCCCCCCCCCCCCCCCS(=O)(=O)c1ccc(S(=O)(=O)F)cc1NC(C)=O
inactive: [11] 91 % of control | dose: 200.0 mg/kg/injection, schedule: Q01DX009 (ip), vehicle: saline sonified 93 % of control | [13] 94 % of control | [14] 91 % of control

CC1=CC(c2ccccc2O)C(=C(C)C)CC1 (configuration not stated)
inactive: [8] 96 % of control | [9] 93 % of control | [10] 89 % of control

CCCC1(CC(C)CC)C(=O)NC(=O)NC1=O (configuration not stated)
inactive: dose: 75.0 mg/kg/injection, schedule: Q01DX001 (ip), vehicle: saline 100 % of control | dose: 150.0 mg/kg/injection, schedule: Q01DX001 (ip), vehicle: saline 96 % of control | dose: 300.0 mg/kg/injection, schedule: Q01DX001 (ip), vehicle: saline 98 % of control

COc1c(NC(=O)c2ccc([N+](=O)[O-])cc2)cccc1[N+](=O)[O-]
inactive: dose: 100.0 mg/kg/injection, schedule: Q04DX002 (ip), vehicle: Klucel (hydroxypropylcellulose) (HPC) 89 % of control | dose: 200.0 mg/kg/injection, schedule: Q04DX002 (ip), vehicle: Klucel (hydroxypropylcellulose) (HPC) 95 % of control | dose: 400.0 mg/kg/injection, schedule: Q04DX002 (ip), vehicle: Klucel (hydroxypropylcellulose) (HPC) 89 % of control
